Assay results from article PMC11435625, “In Vitro Hepatic Clearance Evaluations of Per- and Polyfluoroalkyl Substances (PFAS) across Multiple Structural Categories” (Toxics, 2024).

Tests used:
[1] = tested on: pooled primary human hepatocyte suspensions; test: Hepatic clearance assay (substrate depletion, LC-MS); conditions: in µL/min/10^6 cells; for CLint for HTTK: CLint value carried into HTTK/IVIVE; for in vitro CLint exp assay / Unadj Clint: pooled primary human hepatocyte suspensions; for Unadj Clint: unadjusted hepatic intrinsic clearance, Table S4
Protocol: The rate of hepatic clearance was determined as previously described for a set of PFAS [11]. Analysis was conducted across two laboratories at the Division of Translational Toxicology (DTT) at the National Institute of Environmental Health Sciences (NIEHS) and the Center for Computational Toxicology and Exposure at the USEPA. The PFAS analyzed in each lab can be found in the Supplementary Materials.
The hepatic clearance assay was performed at both the DTT and EPA laboratories as described below. The pooled human hepatocyte suspensions used in this work were purchased commercially and meet the ethical and scientific standards described in the Human Ethics Rule (40 CFR 26). The suspensions were prepared from hepatocytes obtained from de-identified donors by a commercial vendor.
PFAS stock solutions prepared in DMSO were added to prewarmed William’s E medium to make a 2X working stock solution (2 µM). […] The working stock solutions were then transferred to a 96-well polypropylene plate and placed in an incubator at 37 °C with 5% carbon dioxide prior to adding cells. Cryopreserved pooled primary human hepatocyte suspensions (50-donor pool, mixed gender; BioIVT; Westbury, NY, USA) were thawed and transferred to vials containing hepatocyte thawing medium. After centrifuging for 5–10 min at 100× g, thawing medium was removed, being careful not to disturb the cell pellet. The primary human hepatocytes were then resuspended in pre-warmed complete Williams E medium to achieve a cell density of ~1.0 × 10^6 viable cells/mL as determined by Trypan Blue exclusion. Cells were then added to the 96-well incubation plates containing PFAS to achieve a final density of ~0.5 × 10^6 viable cells/mL and a 1 μM assay concentration (Ctest), then placed in incubator on a shaker at 300 rpm. Triplicate samples were removed from the incubator at time points ranging from 0 to 240 min and quenched with a total crash in 2–3 volumes of ice-cold acetonitrile. Samples were spun at 4000× g for 20 min, and supernatants were transferred to new tubes and stored at <−70 °C until analysis. Media-only (no cell) and/or heat-inactivated hepatocytes were included as negative controls for each chemical to evaluate and estimate chemical loss due to nonmetabolic processes (e.g., hydrolysis). Phenacetin was included in all runs as an assay reference compound; EPA also included propranolol as an additional reference compound.
Assay samples were diluted in mobile phase and analyzed using a Thermo Vanquish UPLC system with a Thermo Hypersil Gold aQ C18 column (100 × 2.1 mm, 1.9 […], Thermo Fisher Scientific Inc.) coupled to a Q Exactive Plus mass spectrometer. Gradient elution was used in the chromatographic separations using water with 20 mM ammonium acetate (mobile phase A) and methanol (mobile phase B), with the following gradient program: 0.5–7 min, 30%–90% B; 7–8 min, 90% B; 8–9 min, 90%–30% B; and 9–10 min, 30% B. The first minute of each injection was diverted to waste to avoid introduction of excessive salts from incubation medium. Analysis was detected in negative ion mode. Samples were quantified against an external, matrix-matched calibration curve. Additional methodologic information is available in Table S2.
To perform SPE, a positive-pressure manifold was employed along with Oasis WAX µElution plates and Oasis HLB 30 mg plates (Waters, Milford, MA, USA) for PFAS and positive-control extraction, respectively. […] The sorbent was then washed with 1% formic acid and water. Samples were eluted in 2% ammonia in methanol for analysis. Similarly, HLB plates were conditioned with methanol and water before sample was loaded onto the sorbent. The wells were then washed with 5% methanol in water and water before elution in methanol. For samples not undergoing SPE, the supernatant of the crashed assay sample was diluted in mobile phase prior to analysis. The first 1.5 min of the run was diverted to waste to prevent salt contamination.

[2] = IVIVE: steady-state concentration (Css), generic HTTK model; set-up: species or system human; conditions: for Css (mg/L) / Css (uM): Assuming 1 mg/kg/day dose rate, BW 70 kg; for CLhep: QL 1500000 uL/min; for Fub: fub=fup/(B:P), Fub set to 1 if needed; for CLint: scaled to whole liver: HPGL 110 mill cells/g, Vl 1596 g
Protocol: IVIVE was performed as previously described to calculate human steady-state concentrations (Css). Briefly, experimental plasma protein binding data presented elsewhere were transformed to fraction unbound in blood using blood-to-plasma partitioning values. Experimental Clint values generated here are used in conjunction with relevant liver scalars to scale up to estimate whole liver clearance. […] Once Css values were established, these were used with the PFAS-specific in vitro POD data to calculate the administered equivalent doses (AEDs) using reverse dosimetry. […] The fifth-percentile AC50 value was used to define the in vitro POD. All relevant inputs, scalars, and calculations are provided in Supplementary Information, as indicated in the results.

plasma protein = conditions: cited from earlier work; for Mean fu: fraction unbound in plasma, input for IVIVE calculations

| Structure (SMILES) | CLint for HTTK [1] | in vitro CLint exp assay [1] | Css (mg/L) [2] | Css (uM) [2] | CLhep [2] | Fub [2] | CLint [2] | Mean fu (plasma protein) | Unadj Clint [1] | Css ([2]; human steady-state concentration, 1 mg/kg/day exposure rate, loss of parent compound only) | fup (fraction unbound in plasma) (plasma protein; human plasma) |
| --- | --- | --- | --- | --- | --- | --- | --- | --- | --- | --- | --- |
| O=C(O)C(F)(F)C(F)(F)C(F)F [4H-perfluorobutanoic acid (4H-PFBA)] | 0 | 0 | 1.41 mg/L | 7.18 µM | 0.000 L/h | 0.3116 | 0 µL/min | 0.1714 |  |  |  |
| O=C(O)C(F)(F)C(F)(F)C(F)(F)C(F)(F)C(F)(F)C(F)(F)C(F)F [8H-Perfluorooctanoic acid (8H-PFOA)] | 0 | 0 | 114.93 mg/L | 290.23 µM | 0.000 L/h | 0.003818 | 0 µL/min | 0.0021 |  |  |  |
| N.O=C(O)C(F)(F)C(F)(F)C(F)(F)C(F)(F)C(F)(F)C(F)(F)C(F)(F)F [Ammonium perfluorooctanoate (NH4PFOA)] | 2.06 | 2.06 | 81.36 mg/L | 196.53 µM | 0.028 L/h | 0.001273 | 361654 µL/min | 0.0007 |  |  |  |
| O=C(O)C(F)(F)C(F)(F)C(F)(F)C(F)(F)F [PFPeA, Perfluoropentanoic acid] |  |  |  |  |  |  |  |  | 2.13 | 20.78 µM | 0.0440 |
| O=S(=O)(O)C(F)(F)C(F)(F)C(F)(F)C(F)(F)C(F)(F)C(F)(F)C(F)(F)F [Perfluoroheptanesulfonic acid (PFHpS)] | 0 | 0 | 402.24 mg/L | 893.98 µM | 0.000 L/h | 0.001091 | 0 µL/min | 0.0006 |  |  |  |
| O=C(Cl)C(F)(F)C(F)(F)C(F)(F)C(F)(F)C(F)(F)C(F)(F)F [Perfluoroheptanoyl chloride (PFHpA-Cl)] | 0 | 0 | 180.82 mg/L | 473.43 µM | 0.000 L/h | 0.002427 | 0 µL/min | 0.0017 |  |  |  |
| NS(=O)(=O)C(F)(F)C(F)(F)C(F)(F)C(F)(F)C(F)(F)C(F)(F)F [Perfluorohexanesulfonamide (PFHxSA)] | 0 | 0 | 603.36 mg/L | 1512.33 µM | 0.000 L/h | 0.0007273 | 0 µL/min | 0.0004 |  |  |  |
| O=S(=O)(O)C(F)(F)C(F)(F)C(F)(F)C(F)(F)C(F)(F)C(F)(F)F [Perfluorohexanesulfonic acid (PFHxS)] | 0 | 0 | 268.16 mg/L | 670.49 µM | 0.000 L/h | 0.001636 | 0 µL/min | 0.0009 |  |  |  |
| O=C(O)C(F)(F)C(F)(F)C(F)(F)C(F)(F)C(F)(F)C(F)(F)C(F)(F)C(F)(F)F [Perfluorononanoic acid (PFNA)] | 0 | 0 | 150.84 mg/L | 325.11 µM | 0.000 L/h | 0.002909 | 0 µL/min | 0.0016 |  |  |  |
| NS(=O)(=O)C(F)(F)C(F)(F)C(F)(F)C(F)(F)C(F)(F)C(F)(F)C(F)(F)C(F)(F)F [Perfluorooctane sulfonamide (PFOSA)] | 17.84 | 17.84 | 2.16 mg/L | 4.33 µM | 1.313 L/h | 0.007091 | 3131990 µL/min | 0.0039 |  |  |  |
| O=S(=O)(O)C(F)(F)C(F)(F)C(F)(F)C(F)(F)C(F)(F)C(F)(F)C(F)(F)C(F)(F)F [Perfluorooctane sulfonate (PFOS)] | 0 | 0 | 49.25 mg/L | 98.52 µM | 0.000 L/h | 0.008909 | 0 µL/min | 0.0049 |  |  |  |
| O=S(=O)(O)C(F)(F)C(F)(F)C(F)(F)C(F)(F)C(F)(F)C(F)(F)C(F)(F)C(F)(F)F [Perfluorooctanesulfonate (PFOS-)] | 0 | 0 | 51.35 mg/L | 102.71 µM | 0.000 L/h | 0.008545 | 0 µL/min | 0.0047 |  |  |  |
| O=C(O)C(F)(F)C(F)(F)C(F)(F)C(F)(F)C(F)(F)C(F)(F)C(F)(F)F [Perfluorooctanoic acid (PFOA)] | 0 | 0 | 241.34 mg/L | 582.99 µM | 0.000 L/h | 0.001818 | 0 µL/min | 0.001 |  |  |  |
| O=C(O)C(F)(F)C(F)(F)C(F)(F)C(F)(F)F [Perfluoropentanoic acid (PFPeA)] | 0 | 0 | 5.49 mg/L | 20.78 µM | 0.000 L/h | 0.08 | 0 µL/min | 0.044 |  |  |  |
| O=C(O)C(F)(F)C(F)(F)F [Perfluoropropanoic acid (PFPrA)] | 0 | 0 | 0.78 mg/L | 4.74 µM | 0.000 L/h | 0.5651 | 0 µL/min | 0.3108 |  |  |  |
| O=C(O)C(F)(F)C(F)(F)C(F)(F)C(F)(F)C(F)(F)C(F)(F)C(F)(F)C(F)(F)C(F)(F)C(F)(F)C(F)(F)C(F)(F)C(F)(F)F [Perfluorotetradecanoic acid (PFTeA)] | 0 | 0 | 8.91 mg/L | 12.47 µM | 0.000 L/h | 0.04927 | 0 µL/min | 0.0271 |  |  |  |
| O=C(O)C(F)(F)C(F)(F)C(F)(F)C(F)(F)C(F)(F)C(F)(F)C(F)(F)C(F)(F)C(F)(F)C(F)(F)C(F)(F)C(F)(F)F [Perfluorotridecanoic acid] | 0 | 0 | 5.57 mg/L | 8.39 µM | 0.000 L/h | 0.07873 | 0 µL/min | 0.0433 | 0.00 |  |  |
